In ChEMBL document CHEMBL3046848, “Synthesis and biological evaluation of novel series of thieno[2,3-d]pyrimidine derivatives as anticancer and antimicrobial agents” (2013) one finds inhibition of growth, zone of inhibition and MIC data, which are given here for two compounds.

Common to all, as to format: functional
In one assay the test system is TK-10. As to the kind of experiment: Growth inhibition of Homo sapiens (human) TK10 cells at 10 uM after 48 hr by SRB assay. The following applies: TK-10, 48 h, read-out: GI. (In general: The SRB assay estimates cell density from bound dye.)
In the next assay the test system is Candida albicans. As to the kind of experiment: Antimicrobial activity against Candida albicans ATCC2091 assessed as diameter of growth inhibition zone at 1 mg/ml after 48 hr by agar cup diffusion method. The following applies: ATCC2091, 48 h, read-out: IZ.
In the next assay the test system is IGROV-1. Nature of the assay: Growth inhibition of Homo sapiens (human) IGROV1 cells at 10 uM after 48 hr by SRB assay. The following applies: IGROV-1, 48 h, read-out: GI.
In another assay the test system is Escherichia coli. As to the kind of experiment: Antimicrobial activity against Escherichia coli ATCC8739 assessed as diameter of growth inhibition zone at 1 mg/ml after 24 hr by agar cup diffusion method. The following applies: ATCC8739, 24 h, read-out: IZ.
The test system of another assay is SK-MEL-2. Nature of the assay: Growth inhibition of Homo sapiens (human) SK-MEL-2 cells at 10 uM after 48 hr by SRB assay. The following applies: SK-MEL-2, 48 h, read-out: GI.
The subject of a further assay is Staphylococcus aureus. Nature of the assay: Antimicrobial activity against Staphylococcus aureus ATCC6538P assessed as diameter of growth inhibition zone at 1 mg/ml after 24 hr by agar cup diffusion method. The following applies: read-out: IZ.
For assay [1], the system named is Pseudomonas aeruginosa. As to the kind of experiment: Antimicrobial activity against Pseudomonas aeruginosa ATCC9027 assessed as diameter of growth inhibition zone at 1 mg/ml after 24 hr by agar cup diffusion method. The following applies: ATCC9027, 24 h, read-out: IZ.
For assay [2], the system named is Pseudomonas aeruginosa. As to the kind of experiment: Antimicrobial activity against Pseudomonas aeruginosa ATCC9027 assessed as growth inhibition after 48 hr by two-fold serial dilution method. The following applies: ATCC9027, 48 h.
A further assay deals with SF-295. Nature of the assay: Growth inhibition of Homo sapiens (human) SF295 cells at 10 uM after 48 hr by SRB assay. The following applies: SF-295, 48 h, read-out: GI.

For orientation: MIC means the lowest concentration found to suppress growth.

Values after ≈ are worked out from the molar mass of the structure shown.

With `Cc1c(C(N)=O)sc2nc(SCC(=O)Nc3ccc(Cl)cc3)n(-c3ccccc3)c(=O)c12`, the inhibition of growth at 10 µM in the assay on TK-10 turned out to be 47.2%; with IGROV-1, 79.4%; in the assay on SK-MEL-2, 116%. Also, the zone of inhibition at 1000 µg/mL in the assay on Candida albicans is 15 mm; with Escherichia coli it was 15 mm; in the assay on Staphylococcus aureus, 10 mm; in the assay with Pseudomonas aeruginosa [1], 12 mm.
For `Cc1c(C(N)=O)sc2ncn(CCO)c(=O)c12`, the inhibition of growth at 10 µM was 97.1% in the assay on TK-10 and 43.8% with SF-295. Further, the zone of inhibition at 1000 µg/mL in the assay on Candida albicans worked out at 15 mm; in the assay with Escherichia coli it was 15 mm; in the assay with Staphylococcus aureus, 10 mm; in the assay with Pseudomonas aeruginosa [1], 17 mm. In addition, the MIC with Pseudomonas aeruginosa [2] is 125 µg/mL (≈ 494 µM).
